The values that follow come from patent US20170027868A1, “PEPTIDE-[…]” (priority 2015, published 2017).

Like-named read-outs stand apart in the source and are kept apart here.

Data set [1] has as its system C26 cells. In words: In vitro cellular uptake at 37° C., flow cytometry. Conditions: 20 μg doxorubicin/ml, 3 hours, FIG. 6B. The format is cell-based. (In general: In flow cytometry, cells or beads pass a laser one at a time.)
Description: (§2) For evaluating in vitro cellular uptake, NIH3T3 cells were seeded in complete DMEM and C26 were seeded in complete RPMI in 24-well plates (2×10^5 cells/well). […] Then, cells were washed with PBS, detached by 100 μl of trypsin-EDTA solution (Gibco, UK) and centrifuged at 1500 rpm for 5 minutes. The cells were washed with cold PBS three times and resuspended in staining buffer before analysis. […] Then 0.9 ml of an acidified isopropanol was added to each well, and the mixture was incubated overnight at 4° C. to extract the cell-associated doxorubicin. After sedimentation of the cell debris, doxorubicin concentration was measured.
(§3) Referring to FIGS. 6A and 6B, the geometric mean fluorescence intensity (MFI) of doxorubicin in cells was analyzed by using flow cytometry (FCM) in the FL2 channel.
The subject of data set [2] is HDM-2-negative NIH-3T3 cells. In words: In vitro cellular binding at 4° C., flow cytometry. The format is cell-based, mouse. The note with it: NIH3T3 cells, 20 μg doxorubicin/ml, 1 hour, FIG. 5A. As for the experimental part:
(§1) The exemplary procedure was as follows: cells were detached from cell culture dishes by using 0.05% trypsin and 0.02% EDTA (GIBCO). […] Afterward, the cells were washed three times with PBS and re-suspended in an appropriate volume of the buffer and were analyzed by flow cytometry. BD FACS Calibur equipped was used to read fluorescence signal.

Data set [3] has as its system C26 cells. In words: cells.
Description: At first, C26 cells were seeded in RPMI 1640 media in 96-well plates (5000 cells/well) and were incubated at 37° C. After overnight incubation, cells were treated with different concentration of drug (1:2 serial dilutions of liposomal doxorubicin or free doxorubicin in FCS-free medium) and then incubated at 37° C. for 3 and 6 hours.
After scheduled incubation times, cells were washed with pre-warmed complete culture media and re-incubated further for 48 hours at 37° C. and then the viability of cells was determined by MTT assay; for this purpose, 20 ml of MTT (Thiazolyl Blue Tetrazolium Bromide; Sigma-Aldrich) was added to each well of the plate and was incubated for 4 hours at 37° C.
Relative cell death was calculated as follows: R=(A control−A test)/(A control−A blank) where A test and A control were the absorbance of the cells treated with the test dilutions and the culture medium (negative control). A blank was the absorbance of cell free wells.
Data set [4] concerns C-26 colon carcinoma tumor. In words: In vivo tumor-targeted therapeutic study. Conditions: mice bearing C-26 tumor.
Description: Tumor models were C26 colon carcinoma in BALB/c mice Female BALB/c mice 4-6 week's old and female C57BL/6 mice 6-12 weeks old were injected subcutaneously in the right flank with tumor cells.
Also tumor size was monitored three times a week for 60 days. Three dimensions of tumor (height, length and width) were measured with calipers and tumor volume was calculated via the following formula: tumor volume=(height×length×width)×0.5 cm^3. According to instructions for C26 tumor bearing animals, euthanasia was occurred when their body weight decreased (>20% loss of initial mass), their tumor was greater than 2.0 cm in one dimension or they became sick and unable to feed.
The median survival time (MST) and time to reach end point (TTE) for each mouse were calculated from the equation of the line obtained by exponential regression of the tumor growth curve. Subsequently, the percent of tumor growth delay (TGD) were calculated based on the difference between the mean TTE of treatment group (T) and the mean TTE of the control group (C) (% TGD=[(T−C)/C]×100).
The nature of data set [5]: Bio-distribution study in tumor-bearing mice. The note with it: 24 and 48 h; FIG. 8A.
Description: Blood samples were collected 3, 6, and 12 hours after drug injection via retro orbital bleeding.
Animals were sacrificed at 24 and 48 h after drug administration and blood samples were drawn by heart puncture. The whole tumor, one of the kidneys, spleen, heart, lungs as well as a portion of the liver and muscle were dissected, weighted and homogenized in acidified isopropanol with zirconia beads by Mini-Beadbeater-1 (Biospec, OK). Then the blood and the homogenized tissue samples were centrifuged and the blood serum as well as the sera of tissue samples were diluted in adequate volume of acidified isopropanol and stored at 4° C. overnight for Doxorubicin extraction.
The samples were centrifuged and the supernatant was assayed for Doxorubicin concentration by measuring fluorescence at λEx/Em=480/590 nm compared with Doxorubicin calibration curves, which were prepared in the tissue and sera extracts of the control mice. The pharmacokinetic concentration of doxorubicin was shown as μg/ml of serum.
The subject of data set [6] is HDM-2-negative NIH-3T3 cells. The note with it: NIH3T3 cells, 20 μg doxorubicin/ml, 37° C., 3 hours; FIG. 6A.
Description: as §2, §3
For another data set, the system named is HDM-2-positive C26 cells. In words: In vitro cellular binding at 4° C., flow cytometry. The data set is classed as cell-based. Conditions: 20 μg doxorubicin/ml, 1 hour, FIG. 5B. As for the experimental part: as §1
The mark [7] stands for this setting: single i.v. dose 15 mg/kg doxorubicin.

Take `COc1cccc2c1C(=O)c1c(O)c3c(c(O)c1C2=O)C[C@@](O)(C(=O)CO)C[C@@H]3O[C@H]1C[C@H](N)[C@H](O)[C@H](C)O1` [Free doxorubicin, doxorubicin]: the “cellular uptake (MFI of doxorubicin)” value (in the data set with C26 cells [1]; in data set [6]) was “too high” each time. Further, the cellular binding entry (in data set [2]; with HDM-2-positive C26 cells) was “more than other forms of drugs” in each case. Further, the IC50 in the data set with C26 cells [3] (C26, read-out: IC50 (μM ± SD), C26 cells, 3 h exposure, then 48 h re-incubation) came to 0.625 ± 0.07 µM; in the data set on C26 cells [3] (C26, read-out: IC50 (μM ± SD), C26 cells, 6 h exposure, then 48 h re-incubation), 0.302 ± 0.05 µM. In data set [4] (15 mg/kg, [(T−C)/C]×100 of mean TTE), the “TGD (tumor growth delay)” value was 24.42%. For the same compound, the “MST (median survival time)” value in data set [4] (setting [7]) worked out at 27 days. Besides, the “TTE (time to reach end point)” value in data set [4] (setting [7]) was found to be 27 days. The bio-distribution in serum entry in data set [5] was “decreasing trend over time”.

What is called IC50 is the concentration needed to halve the response being measured.
